These results are taken from ChEMBL document CHEMBL4725315, “Structure-guided optimization of a novel class of ASK1 inhibitors with increased sp character and an exquisite selectivity profile” (Bioorg Med Chem Lett, 2020).

The target in series [1] is T1, Mitogen-activated protein kinase kinase kinase 5 (Homo sapiens, UniProt Q99683).
T1 sequence (Q99683 whole entry): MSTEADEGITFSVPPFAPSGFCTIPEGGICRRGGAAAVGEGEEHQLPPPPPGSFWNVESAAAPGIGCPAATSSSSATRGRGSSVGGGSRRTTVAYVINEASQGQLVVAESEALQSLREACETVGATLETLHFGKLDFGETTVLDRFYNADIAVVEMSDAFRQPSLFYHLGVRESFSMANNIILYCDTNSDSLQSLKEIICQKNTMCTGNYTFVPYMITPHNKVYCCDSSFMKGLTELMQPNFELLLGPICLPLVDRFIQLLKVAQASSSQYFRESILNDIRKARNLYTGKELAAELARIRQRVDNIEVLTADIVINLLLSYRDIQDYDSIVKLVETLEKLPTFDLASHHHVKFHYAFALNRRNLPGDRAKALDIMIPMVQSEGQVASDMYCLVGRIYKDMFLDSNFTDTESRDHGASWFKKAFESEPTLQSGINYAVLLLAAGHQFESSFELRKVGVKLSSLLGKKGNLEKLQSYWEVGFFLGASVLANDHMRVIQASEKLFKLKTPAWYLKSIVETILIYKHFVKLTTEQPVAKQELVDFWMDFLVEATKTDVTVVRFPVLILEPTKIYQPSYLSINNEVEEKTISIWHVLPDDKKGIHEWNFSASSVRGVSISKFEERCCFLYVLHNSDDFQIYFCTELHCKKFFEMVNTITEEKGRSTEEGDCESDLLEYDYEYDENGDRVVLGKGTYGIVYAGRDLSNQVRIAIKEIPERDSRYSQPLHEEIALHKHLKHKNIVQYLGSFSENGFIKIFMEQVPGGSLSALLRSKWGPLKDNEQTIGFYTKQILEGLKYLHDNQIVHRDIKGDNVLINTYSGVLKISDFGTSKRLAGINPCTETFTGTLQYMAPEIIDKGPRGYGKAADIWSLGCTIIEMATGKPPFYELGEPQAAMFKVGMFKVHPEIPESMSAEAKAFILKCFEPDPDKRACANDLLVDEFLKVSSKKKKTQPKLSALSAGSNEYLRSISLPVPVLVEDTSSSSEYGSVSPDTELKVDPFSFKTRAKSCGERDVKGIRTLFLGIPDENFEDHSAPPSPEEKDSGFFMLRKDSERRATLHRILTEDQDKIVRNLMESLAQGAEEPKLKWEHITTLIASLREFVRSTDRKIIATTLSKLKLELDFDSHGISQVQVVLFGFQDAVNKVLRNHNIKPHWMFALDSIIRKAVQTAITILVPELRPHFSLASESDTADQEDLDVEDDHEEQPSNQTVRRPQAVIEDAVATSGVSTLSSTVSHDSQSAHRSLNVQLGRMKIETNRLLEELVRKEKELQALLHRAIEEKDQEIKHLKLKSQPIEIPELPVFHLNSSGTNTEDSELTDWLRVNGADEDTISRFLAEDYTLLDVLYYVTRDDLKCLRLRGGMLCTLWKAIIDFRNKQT
Nature of the series: Inhibition of ASK1 (unknown origin).

Series [2] addresses T2, Receptor tyrosine-protein kinase erbB-4 (Homo sapiens, UniProt Q15303). Nature of the series: Inhibition of ERBB4 (unknown origin).
Series [3] has as its target Rho-associated protein kinase 1 (Homo sapiens, UniProt Q13464). Nature of the series: Inhibition of ROCK1 (unknown origin).
Series [4] has as its target Cyclin-dependent kinase 2 (Homo sapiens, UniProt P24941). Briefly: Inhibition of CDK2 (unknown origin).
The target of series [5] is Epidermal growth factor receptor (Homo sapiens, UniProt P00533). Briefly: Inhibition of EGFR (unknown origin).
For a further series, the target named is MAP kinase p38 (Homo sapiens, UniProt O15264+Q15759+Q16539+P53778). Nature of the series: Inhibition of p38 (unknown origin). It is filed as protein assay.
Series [6] deals with Tyrosine-protein kinase ITK/TSK (Homo sapiens, UniProt Q08881). Briefly: Inhibition of ITK (unknown origin).
The nature of series [7]: Inhibition of GSK3 (unknown origin). The arrangement: species or system Homo sapiens.
The target in series [8] is T2, Receptor tyrosine-protein kinase erbB-4. Briefly: Inhibition of HER4 (unknown origin).
In series [9] the target is Tyrosine-protein kinase Mer (Homo sapiens, UniProt Q12866). Briefly: Inhibition of MER (unknown origin).
Series [10] addresses Proto-oncogene tyrosine-protein kinase receptor Ret (Homo sapiens, UniProt P07949). Nature of the series: Inhibition of RET (unknown origin).
Series [11] deals with 5'-AMP-activated protein kinase catalytic subunit alpha-1 (Homo sapiens, UniProt Q13131). Nature of the series: Inhibition of PRKKA1 (unknown origin).
The next series has as its target Ephrin type-A receptor 3 (Homo sapiens, UniProt P29320). Nature of the series: Inhibition of EPHA3 (unknown origin).
The species entered for series [12] is Homo sapiens. Briefly: Selectivity ratio of IC50 for inhibition of recombinant human full-length GST-tagged PRKD2 expressed in baculovirus expression system to IC50 for inhibition of ASK1 (unknown origin).
For series [13], the species on record is Homo sapiens. Nature of the series: Selectivity ratio of IC50 for inhibition of recombinant human full-length His-tagged RSK2 expressed in baculovirus expression system to IC50 for inhibition of ASK1 (unknown origin).
The species named for series [14] is Homo sapiens. Nature of the series: Selectivity ratio of IC50 for inhibition of CK1gamma3 (unknown origin) to IC50 for inhibition of ASK1 (unknown origin).
For series [15], the species on record is Homo sapiens. Briefly: Selectivity ratio of IC50 for inhibition of recombinant human full-length GST-tagged PKCmu expressed in baculovirus expression system to IC50 for inhibition of ASK1 (unknown origin).
Series [16] is filed under the species Homo sapiens. Briefly: Selectivity ratio of IC50 for inhibition of CK1gamma1 (unknown origin) to IC50 for inhibition of ASK1 (unknown origin).
Series [17] is described as follows: Aqueous solubility of the compound in JP1 fluid at pH 1.2. It is filed as physicochemical.
Series [18] is described as follows: Aqueous solubility of the compound in JP2 fluid at […]. It is filed as physicochemical.
Series [19] addresses Ribosomal protein S6 kinase alpha-2 (Homo sapiens, UniProt Q15349). Briefly: Inhibition of recombinant human full-length GST-tagged RSK3 expressed in insect cells.
A short description of series [20]: Oral bioavailability in male Sprague-Dawley rat at 5 mg/kg. The settings on record: in vivo. The format is ADME, organism-based.
Series [21] addresses Casein kinase I isoform gamma-3 (Homo sapiens, UniProt Q9Y6M4). Nature of the series: Inhibition of CK1gamma3 (unknown origin).
For series [22], the species on record is Homo sapiens. Nature of the series: Selectivity ratio of IC50 for inhibition of recombinant human full-length GST-tagged RSK4 expressed in baculovirus expression system to IC50 for inhibition of ASK1 (unknown origin).
The target of series [23] is Casein kinase I isoform gamma-1 (Homo sapiens, UniProt Q9HCP0). Briefly: Inhibition of CK1gamma1 (unknown origin).
The species named for series [24] is Homo sapiens. Briefly: Selectivity ratio of IC50 for inhibition of recombinant human GST-tagged LRRK2 expressed in baculovirus expression system to IC50 for inhibition of ASK1 (unknown origin).
Series [25] deals with Ribosomal protein S6 kinase alpha-3 (Homo sapiens, UniProt P51812). Nature of the series: Inhibition of recombinant human full-length His-tagged RSK2 expressed in baculovirus expression system.
The species named for series [26] is Homo sapiens. Briefly: Selectivity ratio of IC50 for inhibition of recombinant human full-length GST-tagged RSK3 expressed in insect cells to IC50 for inhibition of ASK1 (unknown origin).
In series [27] the target is Ribosomal protein S6 kinase alpha-6 (Homo sapiens, UniProt Q9UK32). Nature of the series: Inhibition of recombinant human full-length GST-tagged RSK4 expressed in baculovirus expression system.
In series [28] the target is T1, Mitogen-activated protein kinase kinase kinase 5. Nature of the series: Binding affinity to ASK1 (unknown origin).
For series [29], the target named is Leucine-rich repeat serine/threonine-protein kinase 2 (Homo sapiens, UniProt Q5S007). Nature of the series: Inhibition of recombinant human GST-tagged LRRK2 expressed in baculovirus expression system.
Series [30] is described as follows: Drug absorption in male Sprague-Dawley rat at 1 mg/kg, […] by LC-MS/MS analysis. It is filed as ADME, organism-based. Conditions: in vivo, read-out: Drug absorption.
The target in series [31] is T1, Mitogen-activated protein kinase kinase kinase 5. Nature of the series: Inhibition of ASK1 (unknown origin) by cell based assay.
For series [32], the target named is Serine/threonine-protein kinase D2 (Homo sapiens, UniProt Q9BZL6). Nature of the series: Inhibition of recombinant human full-length GST-tagged PRKD2 expressed in baculovirus expression system.
The nature of series [33]: Metabolic stability in human hepatocytes assessed as hepatic extraction ratio. It is filed as ADME, cell-based, Hepatocyte. The settings on record: read-out: ERH.
The test system of the next series is MDR1 (human). Briefly: Permeability across apical to basolateral side in pig LLC-PK1 cells expressing human MDR1. The format is ADME, cell-based, Sus scrofa. The settings on record: read-out: permeability.
The target in series [34] is Serine/threonine-protein kinase D1 (Homo sapiens, UniProt Q15139). Briefly: Inhibition of recombinant human full-length GST-tagged PKCmu expressed in baculovirus expression system.

Structures are written as SMILES. Values after ≈ are worked out from the molar mass of the structure shown. A value given as a limit tells only on which side of the number the result lay.

One may read the IC50 as the concentration that gives 50% inhibition. The term pIC50 denotes the IC50 on a negative log10 scale, so that one unit is a factor of ten. A lower pIC50 goes with a large IC50. One may read the solubility as the dissolved amount per volume that the medium holds. Read a low solubility as a poorly soluble substance. As a reminder, the bioavailability is the share of a dose that reaches the circulation, judged against a reference dose that is usually intravenous. Low readings indicate poor availability, high ones good availability. In general, Kd refers to the equilibrium constant for the complex coming apart. A low value points to tighter binding. In general, EC50 refers to the midpoint of the concentration-response curve.

T2 sequence (Q15303 whole entry): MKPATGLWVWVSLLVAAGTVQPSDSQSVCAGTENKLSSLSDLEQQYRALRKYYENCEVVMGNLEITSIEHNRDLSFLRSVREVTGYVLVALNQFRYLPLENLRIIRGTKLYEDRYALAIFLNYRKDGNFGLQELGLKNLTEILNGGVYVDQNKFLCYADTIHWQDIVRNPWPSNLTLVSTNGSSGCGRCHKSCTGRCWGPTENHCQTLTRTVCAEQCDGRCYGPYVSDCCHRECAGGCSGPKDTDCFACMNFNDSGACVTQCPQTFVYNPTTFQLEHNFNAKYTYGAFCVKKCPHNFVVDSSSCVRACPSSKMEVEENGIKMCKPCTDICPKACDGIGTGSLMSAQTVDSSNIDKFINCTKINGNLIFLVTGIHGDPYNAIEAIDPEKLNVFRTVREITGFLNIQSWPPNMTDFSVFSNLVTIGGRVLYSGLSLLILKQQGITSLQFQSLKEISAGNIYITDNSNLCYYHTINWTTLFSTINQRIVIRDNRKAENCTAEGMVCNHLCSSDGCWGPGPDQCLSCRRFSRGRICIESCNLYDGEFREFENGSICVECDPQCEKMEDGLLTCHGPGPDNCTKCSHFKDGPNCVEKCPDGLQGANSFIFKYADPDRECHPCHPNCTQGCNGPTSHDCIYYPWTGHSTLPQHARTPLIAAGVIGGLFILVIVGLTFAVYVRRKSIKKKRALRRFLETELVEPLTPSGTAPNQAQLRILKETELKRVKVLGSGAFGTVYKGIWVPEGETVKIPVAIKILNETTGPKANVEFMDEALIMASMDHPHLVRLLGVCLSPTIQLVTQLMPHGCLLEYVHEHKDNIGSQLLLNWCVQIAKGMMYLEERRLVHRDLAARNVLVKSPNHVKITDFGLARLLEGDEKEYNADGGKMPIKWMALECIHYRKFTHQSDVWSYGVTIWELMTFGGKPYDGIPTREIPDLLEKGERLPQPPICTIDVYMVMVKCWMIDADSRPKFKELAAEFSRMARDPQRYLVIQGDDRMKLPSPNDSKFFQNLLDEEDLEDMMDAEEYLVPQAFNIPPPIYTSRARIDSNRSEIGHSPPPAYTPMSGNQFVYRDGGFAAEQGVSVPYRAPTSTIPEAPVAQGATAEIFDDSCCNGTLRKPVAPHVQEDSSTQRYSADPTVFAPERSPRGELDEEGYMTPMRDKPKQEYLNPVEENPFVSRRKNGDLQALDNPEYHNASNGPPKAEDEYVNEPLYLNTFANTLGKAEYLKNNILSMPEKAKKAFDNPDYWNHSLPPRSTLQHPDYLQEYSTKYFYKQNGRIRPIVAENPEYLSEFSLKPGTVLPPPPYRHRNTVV
Chain of 5'-AMP-activated protein kinase catalytic subunit alpha-1 (Q13131 whole entry): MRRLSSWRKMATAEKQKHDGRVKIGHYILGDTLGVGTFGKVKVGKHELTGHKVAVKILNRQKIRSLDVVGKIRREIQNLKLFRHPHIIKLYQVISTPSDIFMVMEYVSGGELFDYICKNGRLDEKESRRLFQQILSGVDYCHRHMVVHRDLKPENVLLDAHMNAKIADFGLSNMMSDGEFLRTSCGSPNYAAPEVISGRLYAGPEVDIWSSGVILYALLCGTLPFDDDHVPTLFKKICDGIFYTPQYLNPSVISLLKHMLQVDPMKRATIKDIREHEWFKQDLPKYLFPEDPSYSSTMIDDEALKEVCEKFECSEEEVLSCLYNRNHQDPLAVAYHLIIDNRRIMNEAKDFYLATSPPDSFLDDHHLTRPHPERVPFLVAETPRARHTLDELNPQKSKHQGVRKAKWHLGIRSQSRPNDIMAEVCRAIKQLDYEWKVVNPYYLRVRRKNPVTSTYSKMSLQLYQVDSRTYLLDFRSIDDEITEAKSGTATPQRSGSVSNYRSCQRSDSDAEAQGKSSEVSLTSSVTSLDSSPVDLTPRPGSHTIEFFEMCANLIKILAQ
Chain of Ephrin type-A receptor 3 (P29320 whole entry): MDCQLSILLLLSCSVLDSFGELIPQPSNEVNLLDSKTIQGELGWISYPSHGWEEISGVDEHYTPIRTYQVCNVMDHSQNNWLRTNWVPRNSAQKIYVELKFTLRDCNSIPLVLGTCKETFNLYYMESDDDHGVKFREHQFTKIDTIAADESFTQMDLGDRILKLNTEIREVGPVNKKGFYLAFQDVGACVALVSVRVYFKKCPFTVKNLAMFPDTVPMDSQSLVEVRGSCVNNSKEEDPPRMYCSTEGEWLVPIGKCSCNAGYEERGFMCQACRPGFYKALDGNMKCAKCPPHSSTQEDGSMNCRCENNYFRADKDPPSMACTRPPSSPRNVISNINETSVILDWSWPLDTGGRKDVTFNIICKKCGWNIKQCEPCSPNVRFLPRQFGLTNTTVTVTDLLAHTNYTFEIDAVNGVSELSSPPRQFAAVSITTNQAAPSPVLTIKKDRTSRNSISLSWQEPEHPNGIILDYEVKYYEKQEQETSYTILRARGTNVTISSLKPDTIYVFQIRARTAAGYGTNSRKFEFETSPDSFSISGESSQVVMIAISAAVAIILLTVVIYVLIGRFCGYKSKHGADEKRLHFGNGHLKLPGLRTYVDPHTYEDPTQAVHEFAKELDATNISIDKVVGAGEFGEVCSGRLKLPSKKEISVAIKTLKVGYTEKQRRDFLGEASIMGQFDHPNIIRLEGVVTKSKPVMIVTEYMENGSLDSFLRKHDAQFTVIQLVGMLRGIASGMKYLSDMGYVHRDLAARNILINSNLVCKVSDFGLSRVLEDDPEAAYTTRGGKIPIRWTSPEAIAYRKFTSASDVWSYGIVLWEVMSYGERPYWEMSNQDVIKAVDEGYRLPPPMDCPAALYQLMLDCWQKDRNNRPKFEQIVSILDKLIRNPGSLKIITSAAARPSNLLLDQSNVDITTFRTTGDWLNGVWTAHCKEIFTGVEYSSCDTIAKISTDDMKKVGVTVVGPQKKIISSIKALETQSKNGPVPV
Chain of Epidermal growth factor receptor (P00533 whole entry): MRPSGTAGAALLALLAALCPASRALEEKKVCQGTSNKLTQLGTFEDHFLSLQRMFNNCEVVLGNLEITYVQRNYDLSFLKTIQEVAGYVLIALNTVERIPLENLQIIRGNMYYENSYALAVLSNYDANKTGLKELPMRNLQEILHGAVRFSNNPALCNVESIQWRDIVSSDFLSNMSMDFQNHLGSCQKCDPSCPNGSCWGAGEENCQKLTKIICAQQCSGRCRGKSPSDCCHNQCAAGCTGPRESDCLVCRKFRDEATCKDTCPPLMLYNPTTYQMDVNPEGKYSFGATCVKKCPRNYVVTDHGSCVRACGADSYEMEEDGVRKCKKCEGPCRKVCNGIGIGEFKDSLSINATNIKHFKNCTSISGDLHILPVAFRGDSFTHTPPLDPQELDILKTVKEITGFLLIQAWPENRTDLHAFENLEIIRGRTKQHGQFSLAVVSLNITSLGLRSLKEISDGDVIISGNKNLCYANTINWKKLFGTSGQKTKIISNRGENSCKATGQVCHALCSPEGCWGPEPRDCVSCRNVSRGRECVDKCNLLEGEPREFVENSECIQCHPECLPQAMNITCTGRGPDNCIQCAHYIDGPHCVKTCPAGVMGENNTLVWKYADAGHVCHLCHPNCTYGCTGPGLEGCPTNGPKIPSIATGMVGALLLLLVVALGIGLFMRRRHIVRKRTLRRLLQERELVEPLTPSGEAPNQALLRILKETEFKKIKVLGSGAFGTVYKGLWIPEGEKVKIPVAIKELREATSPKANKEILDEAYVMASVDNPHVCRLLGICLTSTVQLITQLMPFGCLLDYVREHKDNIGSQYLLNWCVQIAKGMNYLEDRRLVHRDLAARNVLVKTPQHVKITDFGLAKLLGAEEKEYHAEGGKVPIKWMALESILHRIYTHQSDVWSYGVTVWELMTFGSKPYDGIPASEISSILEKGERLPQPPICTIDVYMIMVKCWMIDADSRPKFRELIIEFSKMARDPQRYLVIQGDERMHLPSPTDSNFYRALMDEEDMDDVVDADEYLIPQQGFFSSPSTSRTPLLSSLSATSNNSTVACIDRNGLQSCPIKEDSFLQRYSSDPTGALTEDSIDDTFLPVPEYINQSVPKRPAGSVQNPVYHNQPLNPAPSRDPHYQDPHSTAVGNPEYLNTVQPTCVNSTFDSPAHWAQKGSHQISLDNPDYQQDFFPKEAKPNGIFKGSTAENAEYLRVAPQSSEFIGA
Chain of Tyrosine-protein kinase Mer (Q12866 whole entry): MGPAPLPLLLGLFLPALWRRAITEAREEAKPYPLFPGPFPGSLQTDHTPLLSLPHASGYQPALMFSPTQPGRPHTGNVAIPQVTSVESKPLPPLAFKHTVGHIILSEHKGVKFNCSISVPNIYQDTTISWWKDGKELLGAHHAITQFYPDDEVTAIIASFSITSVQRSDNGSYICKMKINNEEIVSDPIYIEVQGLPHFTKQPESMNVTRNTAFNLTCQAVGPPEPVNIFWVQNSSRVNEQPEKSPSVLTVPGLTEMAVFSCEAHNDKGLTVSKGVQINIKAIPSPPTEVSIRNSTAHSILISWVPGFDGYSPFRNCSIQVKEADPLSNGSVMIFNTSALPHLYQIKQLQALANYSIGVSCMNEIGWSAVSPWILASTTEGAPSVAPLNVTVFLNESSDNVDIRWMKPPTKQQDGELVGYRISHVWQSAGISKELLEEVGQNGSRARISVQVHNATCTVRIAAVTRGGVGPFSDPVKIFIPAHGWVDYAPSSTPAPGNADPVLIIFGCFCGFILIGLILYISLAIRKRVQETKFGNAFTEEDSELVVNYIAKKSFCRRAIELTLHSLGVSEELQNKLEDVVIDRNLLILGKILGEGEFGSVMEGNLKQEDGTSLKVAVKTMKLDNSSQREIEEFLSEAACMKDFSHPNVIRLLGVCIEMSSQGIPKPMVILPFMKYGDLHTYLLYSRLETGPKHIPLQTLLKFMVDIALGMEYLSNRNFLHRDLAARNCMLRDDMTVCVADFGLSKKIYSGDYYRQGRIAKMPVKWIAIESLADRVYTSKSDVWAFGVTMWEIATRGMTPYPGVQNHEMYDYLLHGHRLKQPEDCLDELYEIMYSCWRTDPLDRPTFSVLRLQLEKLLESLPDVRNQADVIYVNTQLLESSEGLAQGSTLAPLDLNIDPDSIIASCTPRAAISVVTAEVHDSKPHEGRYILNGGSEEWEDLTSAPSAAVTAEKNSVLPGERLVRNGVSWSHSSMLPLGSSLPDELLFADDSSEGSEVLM

Take `CC(C)n1cnnc1-c1cccc(NC(=O)C2CN(c3cccnc3)CCO2)n1` (centres undefined): the IC50 in [1] amounted to 31 nM.

`CC(C)n1cnnc1-c1cccc(NC(=O)C2CN(c3ccccc3)CCO2)n1` (centres undefined): in series [1], the concentration for half-maximal inhibition (IC50) was 130 nM.

Regarding `CC(C)n1cnnc1-c1cccc(N2Cc3ccccc3C2=O)n1`, the IC50 in series [2] is above 20000 nM; in series [3] it was 1000 nM; in series [4], 63.1 nM; in series [5], above 20000 nM; in series [1], 14 nM; in [6], 1260 nM. The IC50 is above 20000 nM in [8]; 631 nM in [9]; 63.1 nM in series [10]; 200 nM in series [11]; above 20000 nM on Ephrin type-A receptor 3. Besides, the pIC50 against MAP kinase p38 was below 4.7; in [7], 7.4.

With `CC(C)n1cnnc1-c1cccc(NC(=O)C2CCCCO2)n1` (centres undefined), the half-maximal inhibitory concentration (IC50) in series [2] is above 20000 nM; in [3] it was above 20000 nM; in series [4], 3160 nM; in series [5] it was above 20000 nM; in series [1], 270 nM; in [6], above 20000 nM. Moreover, the half-inhibitory concentration (IC50) (in series [8]; in series [9]; in series [10]; in [11]; against Ephrin type-A receptor 3) was above 20000 nM throughout. Besides, the results for the pIC50 (on MAP kinase p38; in series [7]) were below 4.7 and 6.2, respectively.

As to `CC(C)n1cnnc1-c1cccc(NC(=O)[C@H]2CN(c3ccc(C4CC4)nc3)CCO2)n1`, the Ratio IC50 in the series listed under Homo sapiens [12], in the series listed under Homo sapiens [13], in the series filed under Homo sapiens [14], in the series filed under Homo sapiens [15], in the series listed under Homo sapiens [16] and in the series filed under Homo sapiens [22] was below 20 in each case. Also, the Ratio IC50 in the series listed under Homo sapiens [24] and in the series listed under Homo sapiens [26] was below 20 throughout. Moreover, the results for the solubility in [17] and in series [18] were above 200 µM and 101 µM (≈ 43.8 µg/mL), respectively. Besides, the IC50 was at most 500 nM in [19]; at most 500 nM in [21]; at most 500 nM in series [23]; 17 nM in series [1]; at most 500 nM in series [25]; at most 500 nM in series [27]. For the same compound, the IC50 in [29], in series [32] and in series [34] was at most 500 nM throughout. In series [20], this compound gave a bioavailability of 18%. In [28], this compound had a Kd below 1 nM. Also, in series [30], the Fa came out at 52%. This compound also displayed a concentration giving a half-maximal response (EC50) in series [31] of 24 nM. Also, the hepatic extraction ratio in [33] came out at 0.32. For the same compound, in the series on MDR1 (human), the Papp A→B is 10.7 ×10⁻⁶ cm/s.

For `CC(C)n1cnnc1-c1cccc(NC(=O)C2CN(C)CCO2)n1` (centres undefined), the IC50 in series [1] stood at 2 nM.
